Measurements from US10274488B2, “Glycan arrays on PTFE-like aluminum coated glass slides and related methods” (Academia Sinica, priority 2008, dated 2019).

Tests used:
[1] = tested on: endoglucanase 44A; experiment: Enzymatic hydrolysis on the PTFE-like ACG surface with endoglucanase 44A, MS-TOF assay; format: biochemical, Clostridium thermocellum; settings: substrate immobilized on the PTFE-like ACG surface
Experimental: For each carbohydrate, a specific enzyme was added: (a) is the control run without enzymes, (b) is exoglucanase L3, and (c) is endoglucanase 44A. […]
For comparison and as illustrated according to implementations shown in FIG. 23, substrate 8, 9, and 10 were immobilized on the PTFE-like ACG surface and carried out the cellulase hydrolysis on the surface directly, after the same washing procedures, these slides were subjected to MS-TOF assay. […] The endoglucanase 44A can't accept compound 8 or 9 as a substrate. […] From the above results, the cellotetraose substrate 10 was the best carbohydrate to create array on the PTFE-like ACG surface for the experiments conducted. By using this array, the activity and specificity of unknown cellulase may be examined.
Cellulase was prepared (5 U/mL in 25 mM pH 5.05 NaOAc buffer solution). Substrate was also dissolved in NaOAc buffer solution (25 mM, pH 5.05) to give 0.5 mM substrate solution. Add 50 μL cellulase solution to 50 μL substrate solution onto the glass slide which was loaded in FAST® Frame multi-slide plate to have a 2.5 U/mL cellulase solution with 0.25 mM substrate. The well of the plate was sealed and the whole assembly was incubated in 37° C. for 18 hours. Put the slide in dry box to remove the water, and then use high vacuum to remove trace water. 100 uL water was used to rinse each well of the FAST® Frame multi-slide plate to solve and remove the salt of the buffer solution. Remove any residual water on the plate by high vacuum and then analyzed the slide by MALDI-TOF Ultra-Flex II.
The genomic DNA of Sulfolobus solfataricus (ATCC 35092) and Clostridium thermocellum (ATCC 27405) were obtained from the ATCC biological resource center. The Sso7d (NCBI accession number: AAK42090) gene fragment was amplified directly from the Sulfolobus solfataricus genome by polymerase chain reaction (PCR) with forward 5′ […] 3′ (SEQ ID NO: 1) and reverse 5′ […] 3′ (SEQ ID NO: 2) primers. […]

[2] = tested on: cellulase from A. niger; experiment: Enzymatic hydrolysis in solution with cellulase from A. niger, MS-TOF readout; format: biochemical, Aspergillus niger; settings: reaction in solution
Experimental: Enzymatic hydrolysis of the immobilized poly-fluorinated cellobiose 8 (see FIG. 14) was first conducted in situ on the phosphonic acid slide surface. Three commercially available cellulases, Aspergillus niger (A. niger), Trichoderma reesei (T. reesei), and Trichoderma viride (T. viride) were prepared separately at 5 U/mL in a sodium acetate (25 mM) buffer solution (pH 5) and loaded onto the functionalized slide which has been divided into 16 wells using Fast Frame reaction chambers. For comparison, an aliquot of enzyme solution (100 μL) was added to the solution of fluorinated cellobiose (100 μL of 0.5 mM) in eppendorfs to carry out the enzymatic hydrolysis reactions in solution. After the reaction, it was transferred to the empty wells of the same slide. Each well was rinsed separately three times with de-ionized water and the slide was dried again under high vacuum before subjecting to MS-TOF analysis.
Under MS-TOF analysis, the clean background baseline allowed calculation of the percentage of hydrolyzed components for each sample. As shown in the MS-TOF results in FIG. 20, percentages of hydrolyzed products are calculated from the peak intensities of each spectrum. According to implementations of experimental data shown in FIG. 20, MS-TOF data of enzymatic hydrolysis of poly-fluorinated cellobiose in solution in FIG. 20A and immobilized on PTFE-like ACG slide in FIG. 20B. The control are the same experimental conditions run without enzymes in (a); (b), (c), and (d) are experimental conditions with the cellulase proteins from A. niger (b), T. reesei (c), and T. viride (d).
Cellulase was prepared (5 U/mL in 25 mM pH 5.05 NaOAc buffer solution). Substrate was also dissolved in NaOAc buffer solution (25 mM, pH 5.05) to give 0.5 mM substrate solution. Add 100 uL cellulase solution to 100 uL substrate solution in eppendorf to have a 2.5 U/mL cellulase solution with 0.25 mM substrate. This solution was incubated in 37° C. for 18 hours. Add 100 μL incubated solution onto the slide loaded in FAST® Frame. Put the slide in dry box to remove the water, and then use high vacuum to remove trace water. 100 μL water was used to rinse each well of the FAST® Frame multi-slide plate to solve and remove the salt of the buffer solution. Remove any residual water on the plate by high vacuum and then analyzed the slide by MALDI-TOF Ultra-Flex II.

Compound	Cleavage of the substrate by endoglucanase 44A (in words) [1]	Hydrolysis of the substrate by the enzyme from A. niger, one glucose unit at a time (in words) [2]	Biose (un-hydrolyzed cellobiose), percentage of hydrolyzed pattern ([2]; A. niger cellulase, pH 5) [%]	F-tail, percentage of hydrolyzed pattern ([2]; A. niger cellulase, pH 5)	Glucose, percentage of hydrolyzed pattern ([2]; A. niger cellulase, pH 5) [%]	Triose, percentage of hydrolyzed pattern ([2]; A. niger cellulase, pH 5) [%]	Triose, percentage of hydrolyzed pattern ([2]; A. niger cellulase, pH 5, listed as cellobiose) [%]
O=C(NCCCCCO[C@@H]1O[C@H](CO)[C@@H](O[C@@H]2O[C@H](CO)[C@@H](O[C@@H]3O[C@H](CO)[C@@H](O)[C@H](O)[C@H]3O)[C@H](O)[C@H]2O)[C@H](O)[C@H]1O)OCCCC(F)(F)C(F)(F)C(F)(F)C(F)(F)C(F)(F)C(F)(F)C(F)(F)C(F)(F)C(F)(F)F [Compound 9, [(4,4,5,5,6,6,7,7,8,8,9,9,10,10,11,11,12,12,12-nonadecafluorododecoxycarbonyl-amino)pentyl] ß-D-glucopyranosyl-(1→4)-ß-D-glucopyranosyl-(1→4)- -ß-D-glucopyranoside]	can't accept	very slow reaction rate					
O=C(NCCCCCO[C@@H]1O[C@H](CO)[C@@H](O[C@@H]2O[C@H](CO)[C@@H](O)[C@H](O)[C@H]2O)[C@H](O)[C@H]1O)OCCCC(F)(F)C(F)(F)C(F)(F)C(F)(F)C(F)(F)C(F)(F)C(F)(F)C(F)(F)F [Compound 8, [(4,4,5,5,6,6,7,7,8,8,9,9,10,10,11,11,12,12,12-nonadecafluorododecoxycarbonyl-amino)pentyl] ß-D-cellobioside]	can't accept	very slow reaction rate	64	0/0%	18	18	8
